Assay results: patent publication US8258125B2, “HDL-boosting combination therapy complexes” (priority 2008, dated 2012)
Entries after “also recorded” stand apart in the source; their conditions may differ. Where two headings read alike, the source gives them in different places.

Tests used:
[1] = system: Syrian Golden hamsters (F1B strain); experiment: Lipid profile in Syrian Golden hamsters on hypercholesterolemic diet, combo drugs vs Crestor; assay type: in vivo; settings: for effective doses found in this study: in combination, mg/70 kg man
Procedure: Crestor is a new synthetic statin and considered “superstatin” because of its effectiveness at low doses. In clinical studies, Crestor is now found to be the new gold standard among the statins: a 5 mg Crestor dose is equivalent to 20 mg Lipitor, 40 mg Zocor, 80 mg Mevacor or Pravachol. Thus, the drug combination of Compound I and Compound II was compared with Crestor. The animal model was Syrian Golden hamsters (F1B strain, BioBreeders, Fitchburg Mass.). The animals approximately 8-10 weeks of age were fed a non-purified chow-based hypercholesterolemic diet (HCD) containing 10% coconut oil and 0.1% cholesterol by weight for 2 weeks prior to initiation of the experimental treatments, and remain on this diet for the remainder of the study. Compounds I and II were administered by oral gavage (0.2 mL), once a day for 14 days. At day 14, blood samples were obtained after an overnight fast.

[2] = system: Rattus norvegicus, outbred Sprague Dawley; settings: combination, rat 14 days, mg/70 kg man
Procedure: Age range at initiation of study was 8-14. […] Quarantine/acclimation was one week. Animals were randomized to groups based on weight. Number per cage was 2-3. Environmental conditions: Conventional microisolator caging. Room temperature was maintained between 19 and 23° C. Relative humidify was maintained at 55-80%. The light/dark cycle was maintained on a 12 hour cycle. Animals were exposed to the test substance daily for 14 days (2 weeks); and the doses were administered by gavage.
Gross necropsy was performed in the animals in the study. […] Collected tissues were placed in formalin overnight and then sectioned and cassetted the following day.
Blood samples were collected by cardiac puncture, 24 hours after the last treatment, as part of the necropsy protocol. Parameters examined include hematocrit (HCT), hemoglobin (Hgb), total erythrocyte count (RBC), total white cell count (WBC), differential count, and platelet estimate; calculated mean corpuscular volume (MCV), mean corpuscular hemoglobin (MCH), and mean corpuscular hemoglobin concentration (MCHC).
Also, at 16-18 hours after the last treatment, animals were placed in metabolic cages and urine was collected (just prior to necropsy). The urine samples were tested for presence of myoglobin.
Clinical Chemistry. Blood samples were collected by cardiac puncture, 24 hours after the last treatment, as part of the necropsy protocol. […]

Golden Syrian hamster = experiment: Evaluation of antilipidemic property in hamster animal model (2-week daily oral gavage); assay type: in vivo; settings: for LDL-C reduced by: 8-160 mg range; for raising HDL-C (in words): monotherapy; for reducing LDL-C by: repeat experiment, 5-20 mg dose range
From the text: Evaluation of antilipidemic property in animal. Golden Syrian hamster, 8-wk old (85-100 g) (Bio®F1B, Bio Breeders, Inc., Watertown, Mass.) was the animal model chosen for this study because of its similarities with humans in lipoprotein metabolism and atherosclerosis Moreover, the hamster has plasma cholesteryl ester transfer protein (CETP) similar to humans. Dietary fat saturation affects apolipoprotein gene expression and high-density lipoprotein size distribution in golden Syrian hamsters. The animals housed four per cage were fed […] Supreme Fortified Hamster diet ([…] Products, Inc. Chilton, Wis.), with one part ratio of Heath High Energy suet (Heath Mfg., Cooperville, Mich.); water ad libitum. The animals were fed this diet for 1 week, and then given the drug treatment for a 2-week duration. Drugs were administered by daily oral gavage using 4:6 PEG/Cremaphore suspension vehicle for the water-insoluble drugs (e.g., atorvastatin, lovastatin, simvastatin, and the fibrates); the water-soluble drugs (dihydroxy-acid salts, pravastatin) were dissolved in water. Equivalent doses, based on a 70 kg person, were administered in the hamster. […] Thus, the calculated final dose for a 100-gm hamster is 0.143 mg as well ([…] X a factor of “10”), formulated in a 0.25 ml solution for oral gavage administration. […] Body weights were recorded prior to drug administration and every other day during the test duration. At termination, blood was collected from anesthetized hamsters and the serum is separated by centrifugation. Total serum cholesterol was assayed using the Hitachi Diagnostics enzymatic kit for the determination of total cholesterol, LDL cholesterol, HDL cholesterol, and triglyceride (Analysis performed by: Lipid Analysis, Inc., Springfield, Ill.).

Water solubility = assay type: physicochemical
[3] = background description; cited from earlier work
[4] = Equivalent Dose 8 mg (per 70 kg man), oral gavage 2 weeks, serum
[5] = Equivalent Dose 160 mg (per 70 kg man), oral gavage 2 weeks, serum
[6] = repeat comparison, Equivalent Dose 5.0 mg
[7] = repeat comparison, Equivalent Dose 10.0 mg
[8] = repeat comparison, Equivalent Dose 20.0 mg
[9] = compared with the Compound I and II combination

Row | Compound | % Decrease On: HDL-C (Golden Syrian hamster; Equivalent Dose 8 mg) [%] | % Decrease On: LDL-C (Golden Syrian hamster; Equivalent Dose 8 mg) [%] | % Decrease On: Triglyceride (Golden Syrian hamster; Equivalent Dose 8 mg) [%] | % Decrease On: Total Cholesterol (Golden Syrian hamster; [4]) [%] | % Decrease On: HDL-C (Golden Syrian hamster; Equivalent Dose 160 mg) [%] | % Decrease On: LDL-C (Golden Syrian hamster; Equivalent Dose 160 mg) [%] | % Decrease On: Triglyceride (Golden Syrian hamster; Equivalent Dose 160 mg) [%] | % Decrease On: Total Cholesterol (Golden Syrian hamster; [5]) [%] | raising HDL-C (in words) (Golden Syrian hamster) | also measured
1 | CC(C)(Oc1ccc(CCNC(=O)c2ccc(Cl)cc2)cc1)C(=O)[O-].[Na+] [Compound III] |  |  |  |  |  |  |  |  |  | effective doses found in this study [1]: 30 to 40 mg; maximum tolerated dose (MTD) [2]: 10,000 mg
2 | CC[C@H](C)C(=O)O[C@H]1C[C@@H](C)C=C2C=C[C@H](C)[C@H](CC[C@@H](O)C[C@@H](O)CC(=O)[O-])[C@H]21.[Na+] [Compound I] | 25.2 | 41.4 | 28.6 | 30.3 | 32.2 | 29.2 | 33.7 | 40.7 | not effective in raising HDL-C | LDL-C reduced by (Golden Syrian hamster): 41.4-59.2%; effective at a dose as low as (Golden Syrian hamster; equivalent dose, antilipidemic activity): 5 mg; % Decrease On: HDL-C (Golden Syrian hamster; [6]): 5.6%; % Decrease On: LDL-C (Golden Syrian hamster; [6]): 14.7%; % Decrease On: Total Cholesterol (Golden Syrian hamster; [6]): 14.8%; % Decrease On: Triglyceride (Golden Syrian hamster; [6]): 4.5%; % Decrease On: HDL-C (Golden Syrian hamster; [7]): 12.4%; % Decrease On: LDL-C (Golden Syrian hamster; [7]): 23.7%; % Decrease On: Total Cholesterol (Golden Syrian hamster; [7]): 12.6%; % Decrease On: Triglyceride (Golden Syrian hamster; [7]): 6.8%; % Decrease On: HDL-C (Golden Syrian hamster; [8]): 20.7%; % Decrease On: LDL-C (Golden Syrian hamster; [8]): 22.4%; % Decrease On: Total Cholesterol (Golden Syrian hamster; [8]): 20.9%; % Decrease On: Triglyceride (Golden Syrian hamster; [8]): 23.6%; reducing LDL-C by (Golden Syrian hamster): 22.4-23.7%; effective doses found in this study [1]: 1 to 3 mg
3 | CC(C)c1nc(N(C)S(C)(=O)=O)nc(-c2ccc(F)cc2)c1/C=C/[C@@H](O)C[C@@H](O)CC(=O)O [Crestor] |  |  |  |  |  |  |  |  |  | HDL level (in words) [1, 9]: did not boost HDL; controlling cholesterol and LDL (in words) [1, 9]: less effective in controlling cholesterol and LDL
4 | CC(C)c1c(C(=O)Nc2ccccc2)c(-c2ccccc2)c(-c2ccc(F)cc2)n1CC[C@@H](O)C[C@@H](O)CC(=O)O [Lipitor, Atorvastatin] | 33.3 | 28.5 | 35.8 | 28.6 | 30.7 | 54.4 | 53.0 | 43.0 | not effective in raising HDL-C; also recorded: did not show any increase in HDL-C | LDL-C reduced by (Golden Syrian hamster): 28.5-54.4%; % Decrease On: HDL-C (Golden Syrian hamster; [7]): 20.7%; % Decrease On: LDL-C (Golden Syrian hamster; [7]): 17.9%; % Decrease On: Total Cholesterol (Golden Syrian hamster; [7]): 18.2%; % Decrease On: Triglyceride (Golden Syrian hamster; [7]): 5.0%; % Decrease On: HDL-C (Golden Syrian hamster; [8]): 15.9%; % Decrease On: LDL-C (Golden Syrian hamster; [8]): 8.9%; % Decrease On: Total Cholesterol (Golden Syrian hamster; [8]): 12.3%; % Decrease On: Triglyceride (Golden Syrian hamster; [8]): 4.8%; reducing LDL-C by (Golden Syrian hamster): 8.9-17.9%
5 | CC[C@H](C)C(=O)O[C@H]1C[C@@H](C)C=C2C=C[C@H](C)[C@H](CC[C@@H]3C[C@@H](O)CC(=O)O3)[C@H]21 [Mevacor, Lovastatin] | 20.4 | 22.4 | 21.8 | 19.4 | 26.7 | 54.4 | 34.4 | 36.6 | did not show any increase in HDL-C | solubility in water (Water solubility): not water-soluble; solubility in water [3]: insoluble in water
6 | CC[C@H](C)C(=O)O[C@H]1C[C@H](O)C=C2C=C[C@H](C)[C@H](CC[C@@H](O)C[C@@H](O)CC(=O)O)[C@H]21 [Pravachol, Pravastatin] | 20.4 | 29.9 | 18.8 | 22.4 | 17.3 | 33.3 | 25.9 | 23.0 | did not show any increase in HDL-C | 
7 | CCC(C)(C)C(=O)O[C@H]1C[C@@H](C)C=C2C=C[C@H](C)[C@H](CC[C@@H]3C[C@@H](O)CC(=O)O3)[C@H]21 [Zocor, Simvastatin] | 12.6 | 5.4 | 23.4 | 9.5 | 30.7 | 54.4 | 43.0 | 40.7 |  | 
8 | O=C(O)c1cccnc1 [niacin, 3-pyridine carboxylic acid] |  |  |  |  |  |  |  |  |  | solubility in water (Water solubility): not soluble in water
